# In patent US10799475B2, “Substituted phenyl aziridine precursor analogs for inhibiting androgen-independent prostate cancer cell growth” (Northwestern University, priority 2007, dated 2020):
# Where a chain is given by its changes, count along the chain named.
# Tests used:
# AR [1] = target: T1, AR (Homo sapiens, UniProt P10275, T878A); experiment: AR nuclear translocation, Western blot and immunofluorescence in LNCaP cells; type: cell-based; details: 16 hours
# T1 construct: epithelial cells expressing endogenous AR, LNCaP prostate cells were studied; endogenous in cells; host or cells: LNCaP
# T1 sequence (P10275 1-920 T878A): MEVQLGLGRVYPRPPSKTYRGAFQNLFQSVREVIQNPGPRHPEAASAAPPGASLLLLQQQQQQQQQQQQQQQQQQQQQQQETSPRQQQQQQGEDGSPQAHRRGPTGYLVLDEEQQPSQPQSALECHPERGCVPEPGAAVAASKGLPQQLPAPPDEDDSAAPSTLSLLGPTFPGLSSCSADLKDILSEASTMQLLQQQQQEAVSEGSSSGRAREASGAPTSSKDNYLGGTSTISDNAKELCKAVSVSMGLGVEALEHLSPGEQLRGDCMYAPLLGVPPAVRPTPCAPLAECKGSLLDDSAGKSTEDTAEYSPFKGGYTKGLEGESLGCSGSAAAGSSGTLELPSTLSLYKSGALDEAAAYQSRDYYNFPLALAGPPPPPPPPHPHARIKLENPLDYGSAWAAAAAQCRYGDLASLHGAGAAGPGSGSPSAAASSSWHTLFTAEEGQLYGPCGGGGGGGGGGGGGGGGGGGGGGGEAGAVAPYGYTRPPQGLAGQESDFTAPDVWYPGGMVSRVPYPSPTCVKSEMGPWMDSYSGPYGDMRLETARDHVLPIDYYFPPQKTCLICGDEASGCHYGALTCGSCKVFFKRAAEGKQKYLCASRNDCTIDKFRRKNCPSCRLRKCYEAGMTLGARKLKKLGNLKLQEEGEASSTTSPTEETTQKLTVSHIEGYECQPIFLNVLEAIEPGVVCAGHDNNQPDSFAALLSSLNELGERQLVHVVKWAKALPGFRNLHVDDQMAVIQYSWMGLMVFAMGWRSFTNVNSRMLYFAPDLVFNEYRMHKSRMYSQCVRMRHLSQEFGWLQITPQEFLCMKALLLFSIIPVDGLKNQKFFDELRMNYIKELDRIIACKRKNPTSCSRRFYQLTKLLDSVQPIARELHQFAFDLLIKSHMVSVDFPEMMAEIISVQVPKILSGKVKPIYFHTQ
# AR [2] = target: T1, AR; experiment: EMSA of AR-DNA binding in LNCaP cells; type: cell-based
# AR [3] = target: T1, AR; type: cell-based; details: LNCaP cells, CpdA 2×10^−6 M, 24 hours, basal and DHT 10^−7 M
# NF-κB = experiment: κB.Luc dual Luciferase assay of GR transrepression in PC cells; type: cell-based, human; details: all studied prostate cells, basal and IKKβ-induced, CpdA 10^−5 M, 24 hours
# PC cells = type: cell-based, human; details: 72 hours
# LNCaP cells = type: cell-based, human; details: 5 μM CpdA, 1-12 days
# DU145 cells = type: cell-based, human
# PC3 cells = type: cell-based, human
# PWR-1E cells = type: cell-based; details: tested range of concentrations
# DU145 and PC3 cells = experiment: Apoptosis by PARP cleavage, Western blotting; type: cell-based, human
# A375 cells = type: cell-based, human; details: CpdA 5×10^−6 M, 72 hours
# C8161 cells = type: cell-based, human; details: CpdA 5×10^−6 M, 72 hours
# B16F10 cells = type: cell-based, mouse; details: CpdA 5×10^−6 M, 72 hours
# LNCaP-GR cells = type: cell-based, human; details: monolayer and colony-forming assay, data not shown
# PC3 and LNCaP-GR cells = type: cell-based, human
# LNCaP-AR^low cells = type: cell-based, human; details: CpdA 2×10^−6 M, 1-10 days
# [4] = rodents, proposed concentration 12.5 mg/kg; cited from earlier work
# GR [5] = target: T2, GR (Homo sapiens, UniProt P04150); details: cited from earlier work
# T2 sequence (P04150 1-777): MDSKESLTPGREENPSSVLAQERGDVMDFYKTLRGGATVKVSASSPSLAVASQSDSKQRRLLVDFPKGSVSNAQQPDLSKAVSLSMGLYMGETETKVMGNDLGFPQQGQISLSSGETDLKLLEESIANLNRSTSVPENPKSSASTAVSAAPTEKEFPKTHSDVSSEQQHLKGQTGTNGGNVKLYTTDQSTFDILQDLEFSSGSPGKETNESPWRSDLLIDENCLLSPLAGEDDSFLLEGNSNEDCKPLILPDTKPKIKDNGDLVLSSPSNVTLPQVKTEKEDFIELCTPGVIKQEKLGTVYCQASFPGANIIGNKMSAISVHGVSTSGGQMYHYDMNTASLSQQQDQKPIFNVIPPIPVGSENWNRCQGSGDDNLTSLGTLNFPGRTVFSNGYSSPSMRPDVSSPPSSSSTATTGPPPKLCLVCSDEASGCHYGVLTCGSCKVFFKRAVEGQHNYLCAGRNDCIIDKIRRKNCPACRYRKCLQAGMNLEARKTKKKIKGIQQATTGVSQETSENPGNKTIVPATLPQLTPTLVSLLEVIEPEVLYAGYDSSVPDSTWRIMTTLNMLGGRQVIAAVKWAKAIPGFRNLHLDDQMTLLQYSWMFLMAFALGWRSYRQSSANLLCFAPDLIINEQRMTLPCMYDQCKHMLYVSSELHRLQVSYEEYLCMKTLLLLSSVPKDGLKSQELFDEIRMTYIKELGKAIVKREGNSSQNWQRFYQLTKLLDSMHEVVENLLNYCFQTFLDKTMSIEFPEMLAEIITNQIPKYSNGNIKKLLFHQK
# AR [6] = target: T3, AR (Homo sapiens, UniProt P10275); details: cited from earlier work
# T3 sequence (P10275 1-920): T1 sequence (P10275 1-920 T878A) with A878T
# GR [7] = target: T2, GR; experiment: GR nuclear translocation, Western blotting and immunofluorescence in LNCaP-GR cells; type: cell-based; design: expressed in transfected cells; host or cells: LNCaP-GR (lentiviral GR); also DU145 and PC3 (endogenous GR)
# GR [8] = target: T2, GR; experiment: EMSA of GR-DNA binding in LNCaP-GR cells; type: cell-based; design: expressed in transfected cells; host or cells: LNCaP-GR (lentiviral GR); also DU145 and PC3 (endogenous GR); details: CpdA 10^−5 M, 4 hours
# GR [9] = target: T2, GR; experiment: TAT.Luc dual Luciferase assay of GR transactivation in PC cells; type: cell-based; design: expressed in transfected cells; host or cells: LNCaP-GR (lentiviral GR); also DU145 and PC3 (endogenous GR); details: 24 hours
# Experimental: FIG. 3. Effect of CpdA on GR function in PC cells. A. & B. CpdA-activated GR nuclear translocation. Cells were treated with CpdA, glucocorticoid FA, or anti-glucocorticoid RU486. Panel A (immunofluorescence). Panel B (Western blotting of nuclear protein using HDAC-1 and β-tubulin as protein loading controls). C. CpdA decreased GR-DNA binding (EMSA, nuclear proteins). LNCaP-GR cells were treated with 0.01% DMSO (control), Dex (10^−7 M) or CpdA (10^−5 M) for 4 hours. D. & E. CpdA effect on GR function. PC cells were transiently transfected with TAT.Luc (D) or κB.Luc (E), and control Renilla Luciferase reporters, treated with Dex (10^−6 M) or CpdA (10^−5 M) for 24 hours. For activation of NF-κB, cells were co-transfected with CMV.IKKβ plasmid (in panel E). Reporter activity was assessed by dual Luciferase assay and presented as factor of change.
# FIG. 4. CpdA effect on GR function. A. & B. PC cells were transiently transfected with TAT.Luc (A) or κB.Luc (B), and control Renilla Luciferase reporters. Cells were treated with Dex (10^−6 M) and CpdA (10^−5 M) for 24 hours. For activation of NF-κB (as shown in panel B), cells were co-transfected with CMV.IKKβ plasmid. Reporter activity was assessed by dual Luciferase assay and presented as factor of change. […]
# [10] = CpdA 10^−9 M−2×10^−5 M, 72 hours
smiles,measurement,setting,value
"CNCC(Cl)c1ccc(OC(C)=O)cc1.Cl (centres unmarked) [CpdA, 2-(4-acetoxyphenyl)-2-chloro-N-methyl-ethylammonium chloride]",AR nuclear translocation,AR [1],induce AR nuclear translocation
same,AR DNA binding,AR [2],constitutively inhibit AR DNA binding and especially DHT-induced AR DNA binding
same,AR transcriptional activity,AR [3],inhibited basal and DHT-induced transcriptional activity of AR
same,NF-κB function (κB.Luc),NF-κB,strongly inhibited
same,concentration range of strong cytostatic effect,PC cells,2−10 μM
same,growth inhibition,LNCaP cells,strong growth inhibition
same,growth inhibition vs vehicle-treated control,DU145 cells,60-65%
same,"growth inhibition, concentration-dependent",DU145 cells; [10],strongly inhibit
same,growth inhibition vs vehicle-treated control,PC3 cells,65-85%
same,"growth inhibition, concentration-dependent",PC3 cells; [10],strongly inhibit
same,growth inhibition,PWR-1E cells,rather resistant
same,treatment time after which apoptosis is induced (PARP cleavage),DU145 and PC3 cells; CpdA 2×10^−6 M,6 to 8 days
same,treatment time after which cells are sensitized to TNFα-induced apoptosis,DU145 and PC3 cells; CpdA then TNFα 10 ng/ml for 16 hours,2 days
same,growth inhibition,A375 cells,strongly inhibited growth
same,growth inhibition,C8161 cells,strongly inhibited growth
same,growth inhibition,B16F10 cells,strongly inhibited growth
same,sensitivity to growth inhibition vs control cells infected with empty virus,LNCaP-GR cells,significantly more sensitive
same,sensitivity to CpdA after GR blockage,PC3 and LNCaP-GR cells,drastic loss of sensitivity
same,growth inhibition,LNCaP-AR^low cells,resistant
same,anti-inflammatory effect,[4],strong anti-inflammatory effect
same,competition for GR binding,GR [5],competes with glucocorticoids for GR binding
same,competition for AR binding,AR [6],does not compete with androgen for AR binding
same,GR nuclear translocation,GR [7],induce GR nuclear import
same,GR-DNA binding,GR [8],constitutively inhibit glucocorticoid-induced GR-DNA binding
same,GR transcriptional activation (TAT.Luc),"GR [9]; LNCaP-GR, DU145 and PC3 cells, CpdA 10^−5 M",inhibit GR transcriptional activation
"CC1(C)O[C@@H]2C[C@H]3[C@@H]4C[C@H](F)C5=CC(=O)C=C[C@]5(C)[C@@]4(F)[C@@H](O)C[C@]3(C)[C@]2(C(=O)CO)O1 [FA, fluocinolone acetonide, reference compound]",induction of TAT.Luc reporter activity,GR [9]; PC cells,10-15 folds
